Laboratory results from patent US10414728B2 (priority 2014, dated 2019).
Counter-ions that a name gives are not always drawn. Like-named read-outs stand apart in the source and are kept apart here.

Tests used:
Solubility observation = type: physicochemical; conditions: DMSO and acetonitrile/water
Procedure: A solution of methyl biphenyl-4-yl(1,2,5,6-tetrahydropyridin-2-yl)acetate hydrochloride salt (10.0 g, crude) in acetonitrile (40 mL) was charged with Methyl tert.-butyl ether (80 mL) and water (7.0 mL) at room temperature. The reaction mixture was stirred for 10 min at room temperature. The resulted solids were filtered, washed with Methyl tert.-butyl ether (25 mL) and was dried to afford EXAMPLE 1E (Enantiomeric pair consisting of Methyl (2R)-biphenyl-4-yl[(2S)-1,2,5,6-tetrahydropyridin-2-yl]acetate hydrochloride, EXAMPLE 1C, & Methyl (2S)-biphenyl-4-yl[(2R)-1,2,5,6-tetrahydropyridin-2-yl]acetate hydrochloride, EXAMPLE 1D, 3.75 g) as a light brown solid (96.8% HPLC purity, m/z 308 [M+H]+).

human NaV 1.5 = human NaV 1.5 (Homo sapiens, UniProt Q14524); experiment: Electrophysiology, IonWorks Barracuda, NaV channel block in CHO cells; conditions: Nav1.5, CHO cells, 5 min exposure, ambient temperature
Procedure: (§1) Effects on Human NaV 1.1, NaV 1.2, NaV1.3, NaV 1.4, NaV 1.5, NaV 1.6, NaV 1.7 and NaV 1.8/β3 Sodium Channels Expressed in Mammalian Cells
(§2) CHO cells were stably transfected with human ion channel cDNAs. Stable transfectants were selected by expression with the antibiotic-resistance gene(s) incorporated into the expression plasmid(s). Selection pressure was maintained by including selection antibiotics in the culture medium. CHO cells were cultured in Ham's F-12 supplemented with 10% fetal bovine serum, 100 U/mL penicillin G sodium, 100 μg/mL streptomycin sulfate and appropriate selection antibiotics. Before testing, cells in culture dishes were washed twice with Hank's Balanced Salt Solution (HB-PS) and treated with Accutase for approximately 20 minutes. Immediately before use in IonWorks Barracuda™, the cells were washed in HB-PS to remove the Accutase and re-suspended in HB-PS. All experiments were performed at ambient temperature. […] Duration of exposure to each test article concentration was five (5) minutes. Inhibition of NaV channels was measured using a stimulus voltage pattern. The pulse pattern was repeated before (baseline) and for five (5) minutes after compound addition. […]
(§3) where [C] was the concentration of test article, IC50 was the concentration of the test article producing half-maximal inhibition, N was the Hill coefficient, % VC was the percentage of the current run-down (the mean current inhibition at the vehicle control) and % Block was the percentage of ion channel current inhibited at each concentration of a test article. Nonlinear least squares fits were solved with the XLfit add-in for Excel (Microsoft, Redmond, Wash.).

human NaV 1.1 = molecular target: T1, human NaV 1.1 (Homo sapiens, UniProt P35498); experiment: as above; type: cell-based; conditions: Nav1.1, CHO cells, 5 min exposure, ambient temperature
T1 construct: expressed in transfected cells; host or cells: CHO
Procedure: as §1, §2, §3

human NaV 1.6 = molecular target: T2, human NaV 1.6 (Homo sapiens, UniProt Q9UQD0); experiment: as above; type: cell-based; conditions: Nav1.6, CHO cells, 5 min exposure, ambient temperature
T2 construct: expressed in transfected cells; host or cells: CHO
Procedure: as §1, §2, §3

human NaV 1.4 = molecular target: T3, human NaV 1.4 (Homo sapiens, UniProt P35499); experiment: as above; type: cell-based; conditions: Nav1.4, CHO cells, 5 min exposure, ambient temperature
T3 construct: expressed in transfected cells; host or cells: CHO
Procedure: as §1, §2, §3

human NaV 1.8/β3 = molecular target: T4, human NaV 1.8/β3 (Homo sapiens, UniProt Q9Y5Y9); experiment: as above; type: cell-based; conditions: Nav1.8, CHO cells, 5 min exposure, ambient temperature
T4 construct: expressed in transfected cells; host or cells: CHO
Procedure: as §1, §2, §3

human NaV 1.7 = molecular target: T5, human NaV 1.7 (Homo sapiens, UniProt Q15858); experiment: as above; type: cell-based; conditions: Nav1.7, CHO cells, 5 min exposure, ambient temperature
T5 construct: expressed in transfected cells; host or cells: CHO
T5 sequence (Q15858 whole entry): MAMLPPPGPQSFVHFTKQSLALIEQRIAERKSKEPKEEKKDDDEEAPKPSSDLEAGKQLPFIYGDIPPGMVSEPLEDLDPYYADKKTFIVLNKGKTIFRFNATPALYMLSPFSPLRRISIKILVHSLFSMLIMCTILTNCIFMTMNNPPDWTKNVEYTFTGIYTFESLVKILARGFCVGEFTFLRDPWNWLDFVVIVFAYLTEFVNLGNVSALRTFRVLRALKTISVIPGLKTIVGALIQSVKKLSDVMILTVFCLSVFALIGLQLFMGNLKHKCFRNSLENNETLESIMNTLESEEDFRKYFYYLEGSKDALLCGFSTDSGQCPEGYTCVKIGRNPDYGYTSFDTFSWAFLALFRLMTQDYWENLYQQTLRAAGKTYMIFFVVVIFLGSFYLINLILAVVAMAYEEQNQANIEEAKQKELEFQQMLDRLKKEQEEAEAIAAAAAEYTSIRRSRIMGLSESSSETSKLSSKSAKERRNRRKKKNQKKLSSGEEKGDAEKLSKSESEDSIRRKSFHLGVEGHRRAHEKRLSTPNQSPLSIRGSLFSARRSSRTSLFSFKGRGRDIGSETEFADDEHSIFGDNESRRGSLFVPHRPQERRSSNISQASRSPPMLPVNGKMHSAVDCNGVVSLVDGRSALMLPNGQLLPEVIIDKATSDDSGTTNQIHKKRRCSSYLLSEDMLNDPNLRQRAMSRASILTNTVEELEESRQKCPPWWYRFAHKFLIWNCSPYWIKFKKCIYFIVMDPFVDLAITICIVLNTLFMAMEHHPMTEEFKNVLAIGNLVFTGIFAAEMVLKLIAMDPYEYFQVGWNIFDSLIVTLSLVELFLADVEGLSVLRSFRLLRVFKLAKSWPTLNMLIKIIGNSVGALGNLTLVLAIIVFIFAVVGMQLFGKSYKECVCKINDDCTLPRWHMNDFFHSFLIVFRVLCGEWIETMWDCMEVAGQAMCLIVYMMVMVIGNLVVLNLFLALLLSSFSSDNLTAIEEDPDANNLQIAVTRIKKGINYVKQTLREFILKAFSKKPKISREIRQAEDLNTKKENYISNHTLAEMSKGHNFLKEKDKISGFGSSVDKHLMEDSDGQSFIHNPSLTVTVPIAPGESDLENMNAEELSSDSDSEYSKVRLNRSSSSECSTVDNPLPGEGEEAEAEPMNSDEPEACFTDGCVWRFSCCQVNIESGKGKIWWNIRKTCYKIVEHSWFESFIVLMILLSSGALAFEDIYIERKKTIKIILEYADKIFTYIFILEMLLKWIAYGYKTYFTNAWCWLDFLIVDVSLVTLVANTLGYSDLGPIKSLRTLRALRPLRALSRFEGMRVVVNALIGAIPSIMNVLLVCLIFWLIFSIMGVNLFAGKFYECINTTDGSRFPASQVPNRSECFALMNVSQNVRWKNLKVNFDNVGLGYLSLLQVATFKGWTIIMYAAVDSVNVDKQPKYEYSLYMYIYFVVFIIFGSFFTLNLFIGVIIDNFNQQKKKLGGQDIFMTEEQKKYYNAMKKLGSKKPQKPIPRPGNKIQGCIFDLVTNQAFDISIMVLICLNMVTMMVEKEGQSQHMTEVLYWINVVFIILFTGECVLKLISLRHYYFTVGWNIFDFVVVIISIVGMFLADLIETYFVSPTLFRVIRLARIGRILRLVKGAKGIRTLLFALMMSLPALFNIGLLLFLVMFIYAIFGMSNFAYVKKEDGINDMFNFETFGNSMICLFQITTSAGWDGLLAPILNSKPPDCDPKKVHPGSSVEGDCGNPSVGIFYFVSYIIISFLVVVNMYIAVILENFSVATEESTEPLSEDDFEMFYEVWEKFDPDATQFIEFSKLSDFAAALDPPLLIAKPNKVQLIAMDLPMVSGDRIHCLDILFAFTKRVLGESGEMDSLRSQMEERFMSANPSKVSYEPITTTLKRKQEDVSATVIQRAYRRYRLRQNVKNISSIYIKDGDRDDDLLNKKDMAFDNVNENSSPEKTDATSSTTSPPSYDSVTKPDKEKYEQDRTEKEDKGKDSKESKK
Procedure: as §1, §2, §3

human NaV 1.2 = molecular target: T6, human NaV 1.2 (Homo sapiens, UniProt Q99250); experiment: as above; type: cell-based; conditions: Nav1.2, CHO cells, 5 min exposure, ambient temperature
T6 construct: expressed in transfected cells; host or cells: CHO
T6 sequence (Q99250 whole entry): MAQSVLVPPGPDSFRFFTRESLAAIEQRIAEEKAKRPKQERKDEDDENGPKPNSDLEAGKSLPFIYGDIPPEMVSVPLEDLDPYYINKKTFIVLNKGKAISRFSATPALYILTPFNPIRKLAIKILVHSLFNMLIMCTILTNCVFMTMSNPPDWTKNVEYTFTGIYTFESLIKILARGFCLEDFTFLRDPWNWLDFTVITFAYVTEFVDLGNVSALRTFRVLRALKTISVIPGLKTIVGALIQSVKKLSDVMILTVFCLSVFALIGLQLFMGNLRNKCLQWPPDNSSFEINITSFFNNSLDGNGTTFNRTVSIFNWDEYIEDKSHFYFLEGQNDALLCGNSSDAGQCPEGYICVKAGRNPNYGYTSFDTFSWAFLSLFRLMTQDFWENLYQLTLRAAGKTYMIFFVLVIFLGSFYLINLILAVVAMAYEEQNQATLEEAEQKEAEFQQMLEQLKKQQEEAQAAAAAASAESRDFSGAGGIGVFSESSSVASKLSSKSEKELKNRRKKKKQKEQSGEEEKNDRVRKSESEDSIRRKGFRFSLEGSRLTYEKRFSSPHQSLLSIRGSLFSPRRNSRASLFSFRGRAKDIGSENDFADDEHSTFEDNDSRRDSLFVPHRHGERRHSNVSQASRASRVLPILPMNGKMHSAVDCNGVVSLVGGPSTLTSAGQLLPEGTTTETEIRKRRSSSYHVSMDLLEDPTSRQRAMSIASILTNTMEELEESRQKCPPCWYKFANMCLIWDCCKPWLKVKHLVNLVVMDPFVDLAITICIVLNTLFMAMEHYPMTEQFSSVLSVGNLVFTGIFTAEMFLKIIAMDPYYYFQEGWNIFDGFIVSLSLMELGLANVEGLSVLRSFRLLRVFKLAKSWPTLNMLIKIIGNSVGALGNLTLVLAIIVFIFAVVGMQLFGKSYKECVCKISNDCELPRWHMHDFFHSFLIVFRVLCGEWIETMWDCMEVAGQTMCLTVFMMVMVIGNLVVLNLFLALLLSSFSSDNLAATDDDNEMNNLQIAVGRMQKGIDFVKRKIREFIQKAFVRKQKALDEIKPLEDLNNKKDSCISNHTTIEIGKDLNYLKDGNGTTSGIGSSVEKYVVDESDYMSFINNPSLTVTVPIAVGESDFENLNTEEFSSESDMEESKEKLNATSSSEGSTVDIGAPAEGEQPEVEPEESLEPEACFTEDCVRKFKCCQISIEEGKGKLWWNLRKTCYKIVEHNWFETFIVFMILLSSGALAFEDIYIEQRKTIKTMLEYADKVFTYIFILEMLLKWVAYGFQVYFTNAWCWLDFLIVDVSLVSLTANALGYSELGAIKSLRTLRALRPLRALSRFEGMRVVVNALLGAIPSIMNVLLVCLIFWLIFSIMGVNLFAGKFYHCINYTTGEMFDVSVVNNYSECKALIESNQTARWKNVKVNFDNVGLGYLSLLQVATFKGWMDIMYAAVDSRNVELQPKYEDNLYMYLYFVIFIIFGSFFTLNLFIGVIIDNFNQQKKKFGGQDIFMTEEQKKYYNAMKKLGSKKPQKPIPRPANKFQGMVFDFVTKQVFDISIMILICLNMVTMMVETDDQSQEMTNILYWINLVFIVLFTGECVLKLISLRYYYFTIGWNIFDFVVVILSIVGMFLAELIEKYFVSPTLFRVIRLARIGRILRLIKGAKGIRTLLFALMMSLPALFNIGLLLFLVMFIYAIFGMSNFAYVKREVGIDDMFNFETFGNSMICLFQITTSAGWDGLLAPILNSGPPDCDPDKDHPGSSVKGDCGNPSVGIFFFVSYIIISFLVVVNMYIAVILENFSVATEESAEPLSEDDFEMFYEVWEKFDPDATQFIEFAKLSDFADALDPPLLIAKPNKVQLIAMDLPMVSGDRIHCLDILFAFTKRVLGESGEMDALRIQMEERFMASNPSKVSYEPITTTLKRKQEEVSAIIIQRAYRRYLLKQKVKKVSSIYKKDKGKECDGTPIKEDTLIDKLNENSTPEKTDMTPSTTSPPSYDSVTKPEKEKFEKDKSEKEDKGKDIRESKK
Procedure: as §1, §2, §3

human NaV1.3 = molecular target: T7, human NaV1.3 (Homo sapiens, UniProt Q9NY46); experiment: as above; type: cell-based; conditions: Nav1.3, CHO cells, 5 min exposure, ambient temperature
T7 construct: expressed in transfected cells; host or cells: CHO
Procedure: as §1, §2, §3

NaV 1.1 to NaV 1.8 = experiment: Electrophysiology, summary over the NaV panel; type: cell-based, human
Procedure: as §1
CHO cells were stably transfected with human ion channel cDNAs. Stable transfectants were selected by expression with the antibiotic-resistance gene(s) incorporated into the expression plasmid(s). Selection pressure was maintained by including selection antibiotics in the culture medium. CHO cells were cultured in Ham's F-12 supplemented with 10% fetal bovine serum, 100 U/mL penicillin G sodium, 100 μg/mL streptomycin sulfate and appropriate selection antibiotics. Before testing, cells in culture dishes were washed twice with Hank's Balanced Salt Solution (HB-PS) and treated with Accutase for approximately 20 minutes. Immediately before use in IonWorks Barracuda™, the cells were washed in HB-PS to remove the Accutase and re-suspended in HB-PS. All experiments were performed at ambient temperature. […] Duration of exposure to each test article concentration was five (5) minutes. Inhibition of NaV channels was measured using a stimulus voltage pattern. The pulse pattern was repeated before (baseline) and for five (5) minutes after compound addition. Peak current amplitudes were measured for test pulses TP1 (inactivated state inhibition), TP2, TP3 (tonic inhibition) and TP22 (use-dependent inhibition).
as §3

[1] = molecular target: T8, Human recombinant serotonin 5-HT2A receptor (Homo sapiens, UniProt P28223); experiment: Serotonin-mediated inositol phosphate (IP1) response in CHO-K1 cells; type: cell-based; conditions: screened at 1 μM, 30 minutes at 37° C.; for inhibition at 1 µM: CHO-K1, read-out: antagonism: inhibition of 0.3 μM serotonin-induced fluorescence response
T8 construct: expressed in transfected cells; host or cells: CHO-K1
T8 sequence (P28223 whole entry): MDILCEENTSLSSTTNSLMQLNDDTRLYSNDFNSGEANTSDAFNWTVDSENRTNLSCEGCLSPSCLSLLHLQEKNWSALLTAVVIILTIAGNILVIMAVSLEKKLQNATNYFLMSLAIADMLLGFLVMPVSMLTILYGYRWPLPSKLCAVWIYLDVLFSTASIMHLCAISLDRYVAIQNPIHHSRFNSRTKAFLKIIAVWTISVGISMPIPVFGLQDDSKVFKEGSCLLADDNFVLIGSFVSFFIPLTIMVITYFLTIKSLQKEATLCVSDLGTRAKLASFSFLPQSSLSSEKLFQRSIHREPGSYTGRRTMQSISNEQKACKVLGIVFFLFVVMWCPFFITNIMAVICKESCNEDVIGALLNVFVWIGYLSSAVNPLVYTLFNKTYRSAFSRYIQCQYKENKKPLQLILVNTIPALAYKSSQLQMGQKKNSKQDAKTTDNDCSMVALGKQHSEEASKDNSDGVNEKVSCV
Procedure: The 5-HT2 receptor class couples preferentially to Gq/G11 to increase hydrolysis of inositol phosphates and elevate cytosolic [Ca^2+]. Human recombinant serotonin 5-HT2A receptor stably expressed in CHO-K1 cells are used. Test compound and/or vehicle is incubated with the cells (5×10^5/ml) in stimulation buffer of IP1 Tb kit (Cisbio Bioassays) for 30 minutes at 37° C. Test compound-induced increase of fluorescence relative to the 10 μM serotonin response indicate possible serotonin 5-HT2A receptor agonist activity.

sodium channel site 2 = experiment: Sodium channel site 2 radioligand binding ([3H]Batrachotoxinin); conditions: rat brain membranes, determined in previous studies
[2] = read-out: IC50 TP2 (inactivated state)

| Compound | IC50 (human NaV 1.5; IC50 TP1 (tonic)) | IC50 (human NaV 1.5; IC50 TP2 (inactivated state)) | IC50 (human NaV 1.1; IC50 TP1 (tonic)) | IC50 (human NaV 1.1; IC50 TP2 (inactivated state)) | IC50 (human NaV 1.6; IC50 TP1 (tonic)) | IC50 (human NaV 1.6; IC50 TP2 (inactivated state)) | IC50 (human NaV 1.4; IC50 TP1 (tonic)) | IC50 (human NaV 1.4; IC50 TP2 (inactivated state)) | IC50 (human NaV 1.8/β3; IC50 TP1 (tonic)) | IC50 (human NaV 1.8/β3; IC50 TP2 (inactivated state)) | IC50 (human NaV 1.7; IC50 TP1 (tonic)) | IC50 (human NaV 1.7; IC50 TP2 (inactivated state)) | IC50 (human NaV 1.2; IC50 TP1 (tonic)) | IC50 (human NaV 1.2; IC50 TP2 (inactivated state)) | IC50 (human NaV1.3; IC50 TP1 (tonic)) | IC50 (human NaV1.3; IC50 TP2 (inactivated state)) | inhibition to NaV 1.1 to NaV 1.8 (NaV 1.1 to NaV 1.8) | agonist activity (increase of fluorescence relative to the 10 μM serotonin response) [1] | inhibition at 1 µM [1] | further results |
| --- | --- | --- | --- | --- | --- | --- | --- | --- | --- | --- | --- | --- | --- | --- | --- | --- | --- | --- | --- | --- |
| COC(=O)[C@H](c1ccc(-c2ccccc2)cc1)[C@@H]1C=CCCN1 (racemic) [EXAMPLE 1E] | > 30 µM | 1.2 µM | > 30 µM | 1.5 µM | > 30 µM | 1.2 µM | > 30 µM | 1.2 µM | > 30 µM | 1.1 µM | > 30 µM | 1.3 µM | > 30 µM | 1.5 µM | > 30 µM | 1.3 µM | showed inhibition | – | – | solubility (Solubility observation): soluble in DMSO and acetonitrile/water |
| COC(=O)C(c1ccc(-c2ccccc2)cc1)C1C=CCCN1.Cl (stereo not shown) [EXAMPLE 1, methyl biphenyl-4-yl(1,2,5,6-tetrahydropyridin-2-yl)acetate hydrochloride salt] | – | – | – | – | – | – | – | – | – | – | – | – | – | – | – | – | – | no agonist activity | – | – |
| COC(=O)[C@H](c1ccc(-c2ccccc2)cc1)[C@@H]1C=CCCN1.Cl [EXAMPLE 1C, Methyl (2R)-biphenyl-4-yl[(2S)-1,2,5,6-tetrahydropyridin-2-yl]acetate hydrochloride] | > 30 µM | 1.5 µM | > 30 µM | 2.1 µM | > 30 µM | 2.2 µM | > 30 µM | 1.5 µM | > 30 µM | 1.9 µM | > 30 µM | 2.5 µM | > 30 µM | 3.1 µM | > 30 µM | 2.2 µM | showed inhibition | no agonist activity | 30% | – |
| COC(=O)[C@@H](c1ccc(-c2ccccc2)cc1)[C@H]1C=CCCN1 [EXAMPLE 1D, Methyl (2S)-biphenyl-4-yl[(2R)-1,2,5,6-tetrahydropyridin-2-yl]acetate hydrochloride] | > 30 µM | 2 µM | > 30 µM | 2.2 µM | > 30 µM | 2 µM | > 30 µM | 1.3 µM | > 30 µM | 1.8 µM | > 30 µM | 2 µM | > 30 µM | 2.1 µM | > 30 µM | 2 µM | showed inhibition | no agonist activity | 37% | – |
| CCN(CC)CC(=O)Nc1c(C)cccc1C [Lidocaine, reference compound] | – | – | – | – | – | – | – | – | – | – | – | – | – | – | – | – | – | – | – | IC50 (human NaV 1.1; read-out: IC50 TP1 (tonic)): 543 µM; IC50 (human NaV 1.1; [2]): 465 µM; IC50 (human NaV 1.6; read-out: IC50 TP1 (tonic)): 423 µM; IC50 (human NaV 1.6; [2]): 188 µM; IC50 (human NaV 1.4; read-out: IC50 TP1 (tonic)): 389 µM; IC50 (human NaV 1.4; [2]): 162 µM; IC50 (human NaV 1.8/β3; read-out: IC50 TP1 (tonic)): 280 µM; IC50 (human NaV 1.8/β3; [2]): 51.4 µM; IC50 (human NaV 1.7; read-out: IC50 TP1 (tonic)): 382 µM; IC50 (human NaV 1.7; [2]): 154 µM; IC50 (human NaV1.3; read-out: IC50 TP1 (tonic)): 555 µM; IC50 (human NaV1.3; [2]): 165 µM |
| [3H]Batrachotoxinin | – | – | – | – | – | – | – | – | – | – | – | – | – | – | – | – | – | – | – | Kd (sodium channel site 2): 0.052 µM |
